Reference: US20060147549A1, “Methods and compositions for reducing population of plant pathogen” (priority 2004, published 2006)

System: citrus canker microbe (Xanthomonas axonopodis pv citri)
Assay: Nursery experiment: compositions sprayed on fruit bearing citrus trees inoculated with citrus canker microbe
Assay type: in vivo
Procedure: In a nursery experiment, three antimicrobial compositions and a control composition were tested for activity against citrus canker microbe. The compositions were sprayed on fruit bearing citrus trees that had been inoculated with citrus canker microbe (Xanthomonas axonopodis pv citri). In these experiments composition A was the metal antimicrobial agent and poly(hexamethyl biguanide) composition and composition B was this composition plus copper ion.
The composition of metal antimicrobial agent and poly(hexamethyl biguanide) as used in compositions A and B included: water ([…]), poly(hexamethyl biguanide) (0.6 wt-%), and silver iodide (0.02 wt-%) Triton X-100 (2 wt-%), Tectronic 1107 (1.2 wt-%), 1-methyl-2-pyrrolidinone (0.3 wt-%), and ethanol (2.8 wt-%).
The antimicrobial composition was applied periodically and the plants were challenged with citrus canker microbe.

Substance: Copper
- % OF HEALTHY LEAVES (Date 1): 82%
- % OF LEAVES WITH CANKER (Date 1): 22.2%
- % OF HEALTHY LEAVES (Date 2): 80.7%
- % OF LEAVES WITH CANKER (Date 2): 18%
- % OF HEALTHY LEAVES (Date 4): 84.7%
- % OF LEAVES WITH CANKER (Date 4): 17.59%
